Assay results: patent US6605308B2, “Pathogen management system” (Tomoco2 Equipment Company, priority 2001, dated 2003)
Where two headings read alike, the source gives them in different places.

Columns and labels:
Listeria monocytogenes = settings: 8% TSP, 10 minutes, room temperature, colony grown on a surface with biofilm; cited from earlier work
Salmonella = Salmonella in chiller water, plant test at Springdale, Ark.
E-Coli [1] = experiment: E-Coli testing at immersion chiller, plant test at Dallas, Tex.
APC = APC on carcass after IOBW, Natchitoches, La.; settings: standard nozzles, 13 seconds of wash time
Coliform = Coliform on carcass after IOBW, Natchitoches, La.; settings: standard nozzles, 13 seconds of wash time
E-Coli [2] = experiment: E-Coli on carcass after IOBW, Natchitoches, La.; settings: standard nozzles, 13 seconds of wash time
Experimental: More tests are being conducted at a facility in Natchitoches, La. The project began by adding hypochlorous acid to the IOBW on-line. Tests were performed on the carcass before and after the IOBW. APC, Coliform and E-Coli test were run on the carcass. Average APC of the carcass entering the IOBW was 90,559 cfu/ml, Coliform of 2,103 cfu/ml and E-Coli of 1,429 cfu/ml. After adding hypochlorous acid to the existing IOBW, using standard nozzles, a major reduction in the numbers was found. The average APC was 12,792, Coliform 664 cfu/ml and E. coli 383 cfu/ml. This was only with 13 seconds of wash time.

E-Coli [3] = experiment: E-Coli testing at chiller system, Natchitoches, La.
pathogens = experiment: Initial one-control-point testing at the immersion chillers, chiller water samples
Description: In a preferred embodiment, a hypochlorous acid stream is used in more than one discrete location along a poultry processing line, although preliminary investigations for pathogens began as a one-control point approach in the process at the immersion chillers.
Samples of chiller water determined that it was sterilized with hypochlorous acid. It appeared that the disinfecting capabilities were maximized at the chiller.

[4] = cited from earlier work
microorganisms = settings: versus OCl-; cited from earlier work
[5] = December, 121 samples so far, chiller plus pick/kill room system
[6] = July, 254 samples, system on chiller
[7] = November, 251 samples, chiller plus pick/kill room system

Structure (SMILES): O=P([O-])([O-])[O-].[Na+].[Na+].[Na+] [TSP, Trisodium phosphate]
- reduction of bacterial numbers (Listeria monocytogenes): 1 log10

Structure (SMILES): [Ca+2].[O-]Cl.[O-]Cl [calcium hypochlorite solution, calcium hypochlorite]
- reduction in Salmonella (Salmonella): 40%
- samples returned with a positive result of Salmonella (Salmonella; of 83 samples, four weeks, injected into chiller recirculation lines without pH control): 16 samples

Structure (SMILES): OCl [hypochlorous acid]
- samples returned positive (Salmonella) (Salmonella; of 41 samples over three weeks, 98% hypochlorous acid solution injected into chiller recirculation lines): 2 samples
- E-Coli detection rate (E-Coli [1]; April): 14%
- samples below 100 cfu/ml (E-Coli [1]; April): 99%
- samples with E-Coli detected (E-Coli [1]; April, of 264 samples): 37 samples
- E-Coli detection rate (E-Coli [1]; March): 28%
- samples below 100 cfu/ml (E-Coli [1]; March): 83%
- samples with E-Coli detected (E-Coli [1]; March, of 264 samples): 76 samples
- E-Coli detection rate (E-Coli [1]; May): 8%
- samples below 100 cfu/ml (E-Coli [1]; May): 100%
- samples with E-Coli detected (E-Coli [1]; May, of 276 samples): 23 samples
- average APC (APC): 12,792 cfu/ml
- average Coliform (Coliform): 664 cfu/ml
- average E. coli (E-Coli [2]): 383 cfu/ml
- samples over 10 cfu/ml (E-Coli [3]; [5]): 28%
- samples over 100 cfu/ml (number) (E-Coli [3]; [5]): two
- samples over 10 cfu/ml (E-Coli [3]; [6]): 38%
- samples over 100 cfu/ml (E-Coli [3]; [6]): 5%
- samples over 10 cfu/ml (E-Coli [3]; [7]): 20%
- samples over 100 cfu/ml (number) (E-Coli [3]; [7]): one
- state of chiller water samples (pathogens): sterilized
- Percent HOCl ([4]; pH 5.0, 0 °C): 99.85%
- Percent HOCl ([4]; pH 5.0, 5 °C): 99.83%
- Percent HOCl ([4]; pH 5.0, 10 °C): 99.80%
- Percent HOCl ([4]; pH 5.0, 15 °C): 99.77%
- Percent HOCl ([4]; pH 5.0, 20 °C): 99.74%
- Percent HOCl ([4]; pH 5.0, 25 °C): 99.71%
- Percent HOCl ([4]; pH 5.0, 30 °C): 99.68%
- Percent HOCl ([4]; pH 5.5, 0 °C): 99.53%
- Percent HOCl ([4]; pH 5.5, 5 °C): 99.75%
- Percent HOCl ([4]; pH 5.5, 10 °C): 99.36%
- Percent HOCl ([4]; pH 5.5, 15 °C): 99.27%
- Percent HOCl ([4]; pH 5.5, 20 °C): 99.18%
- Percent HOCl ([4]; pH 5.5, 25 °C): 99.09%
- Percent HOCl ([4]; pH 5.5, 30 °C): 99.01%
- Percent HOCl ([4]; pH 6.0, 0 °C): 98.53%
- Percent HOCl ([4]; pH 6.0, 5 °C): 98.28%
- Percent HOCl ([4]; pH 6.0, 10 °C): 98.01%
- Percent HOCl ([4]; pH 6.0, 15 °C): 97.73%
- Percent HOCl ([4]; pH 6.0, 20 °C): 97.45%
- Percent HOCl ([4]; pH 6.0, 25 °C): 97.18%
- Percent HOCl ([4]; pH 6.0, 30 °C): 96.92%
- Percent HOCl ([4]; pH 7.0, 0 °C): 87.05%
- Percent HOCl ([4]; pH 7.0, 5 °C): 85.08%
- Percent HOCl ([4]; pH 7.0, 10 °C): 83.11%
- Percent HOCl ([4]; pH 7.0, 15 °C): 81.17%
- Percent HOCl ([4]; pH 7.0, 20 °C): 79.23%
- Percent HOCl ([4]; pH 7.0, 25 °C): 77.53%
- Percent HOCl ([4]; pH 7.0, 30 °C): 75.90%
- Percent HOCl ([4]; pH 8.0, 0 °C): 40.19%
- Percent HOCl ([4]; pH 8.0, 5 °C): 36.32%
- Percent HOCl ([4]; pH 8.0, 10 °C): 32.98%
- Percent HOCl ([4]; pH 8.0, 15 °C): 30.12%
- Percent HOCl ([4]; pH 8.0, 20 °C): 27.62%
- Percent HOCl ([4]; pH 8.0, 25 °C): 25.65%
- Percent HOCl ([4]; pH 8.0, 30 °C): 23.95%
- Percent HOCl ([4]; pH 9.0, 0 °C): 6.30%
- Percent HOCl ([4]; pH 9.0, 5 °C): 5.40%
- Percent HOCl ([4]; pH 9.0, 10 °C): 4.69%
- Percent HOCl ([4]; pH 9.0, 15 °C): 4.13%
- Percent HOCl ([4]; pH 9.0, 20 °C): 3.68%
- Percent HOCl ([4]; pH 9.0, 25 °C): 3.34%
- Percent HOCl ([4]; pH 9.0, 30 °C): 3.05%
- Percent HOCl ([4]; pH 10.0, 0 °C): 0.67%
- Percent HOCl ([4]; pH 10.0, 5 °C): 0.57%
- Percent HOCl ([4]; pH 10.0, 10 °C): 0.49%
- Percent HOCl ([4]; pH 10.0, 15 °C): 0.43%
- Percent HOCl ([4]; pH 10.0, 20 °C): 0.38%
- Percent HOCl ([4]; pH 10.0, 25 °C): 0.34%
- Percent HOCl ([4]; pH 10.0, 30 °C): 0.31%
- Percent HOCl ([4]; pH 11.0, 0 °C): 0.067%
- Percent HOCl ([4]; pH 11.0, 5 °C): 0.057%
- Percent HOCl ([4]; pH 11.0, 10 °C): 0.049%
- Percent HOCl ([4]; pH 11.0, 15 °C): 0.043%
- Percent HOCl ([4]; pH 11.0, 20 °C): 0.038%
- Percent HOCl ([4]; pH 11.0, 25 °C): 0.034%
- Percent HOCl ([4]; pH 11.0, 30 °C): 0.031%
- effectiveness for killing microorganisms relative to OCl- (microorganisms): about 80 times
